In US20060161007A1, “Oxazole and thiazole combinatorial libraries” (priority 1999, published 2006):

Columns and labels:
[1] = tested on: DNA; assay: DNA binding activity by capillary zone electrophoresis
Protocol: The DNA binding activity of the tetrapeptide amides in the first library was measured using capillary zone electrophoresis.

[2] = solubility of building block 3 in solvents; assay type: physicochemical
Protocol: 2-(2′-Boc-aminomethyl-oxazole-4′-yl)-thiazole-4-carboxylic acid (37) (0.65 g, 2 mmol) was added in 30 ml of 40% TFA in DCM and stirred for 60 min. The solvent was removed by concentration under reduced pressure. The residue was diluted with 10 ml of water, which was neutralized to pH 7 by adding 1 M sodium hydroxide (aqueous solution), followed by addition of solid sodium carbonate (0.42 g, 4 mmole) and a solution of Fmoc-OSu (1 g, 3 mmole) in 60 ml of THF. After stirring for 2 hours (white solid precipitated), the reaction mixture was concentrated under reduced pressure to remove the THF, and diluted with 30 ml of water. The aqueous solution was washed with DCM (50 ml×3), and acidified to pH 3 by adding 10% potassium hydrogensulfate (aqueous solution). The white solid which formed was collected by filtration. This product was insoluble in DCM, ether, EtOAc, THF, methanol, ethanol, acetonitrile, HFIP, DMF, NMP and water. It was soluble in DMSO or the solutions containing more than 50% DMSO in DMF or NMP. The product was recrystallized in DMSO-water to give a fine white powder (0.69 g). Yield: 77%. RP-HPLC analysis: retention […]=14.18 min (average of two runs). ^1H-NMR (90 MHz, DMSO-d6) δ ppm: 8.74 (s, 1H), 8.38 (s, 1H), 7.89-7.31 (m, 8H), and 4.394.30 (m, 5H). ESI-MS (m/z): 448.2 [M +H]+, (calculated monoisotopic mass 448.10), 470.2 [M+Na]^+, 486.2 [M+K]^+.

[3] = tested on: Vibrio anguillarum; assay: growth of Vibrio anguillarum cultures (OD650) after incubation with peptide; assay type: cell-based; settings: for effect on the growth of V. anguillarum cultures: result in words; for OD650 of V. anguillarum cultures: 28°; for killing of the bacteria: OD of the cultures still increased at different incubation times
Protocol: The marin bacterium Vibrio anguillarum, a fish pathogen causing the disease “vibriosis” in marine fish and shellfish were used in this experiment.
Bacteria (V. anguillarum) were grown overnight at 28° C. in Luria-Bertani (LB) 20 medium (the concentration of NaCl is 20 g/L for marine bacteria in LB medium, instead of the usual 10 g/L). The culture was re-inoculated and incubated in LB20 medium at 28° C. (ca. 2hr) to reach the exponential growth phase of the bacteria. The bacterial suspension was then dilute with 0.1×LB20 medium to make the bacterial dilution containing 2×10^3 colony-forming units (cfm)/ml.
At time zero, the bacteria were treated with the peptide in 0.1×LB20 medium. After incubation for 3 hours, 1×LB20 medium was added to the culture, and incubated for 20 hours.

[4] = 31.2 μM peptide, 9 hr incubation
[5] = 31.2 μM peptide, 20 hr incubation
[6] = 62.5 μM peptide, 9 hr incubation
[7] = 62.5 μM peptide, 20 hr incubation
[8] = 125 μM peptide, 9 hr incubation
[9] = 125 μM peptide, 20 hr incubation
[10] = 250 μM peptide, 9 hr incubation
[11] = 250 μM peptide, 20 hr incubation
[12] = 500 μM peptide, 9 hr incubation
[13] = 500 μM peptide, 20 hr incubation

With “2-(2′-Fmoc-aminomethyl-oxazole-4′-yl)-thiazole-4-carboxylic acid [Compound 3]” the “Ka(1), stoichiometric equilibrium binding constant near saturation” value [1] was 20000 M⁻¹.
For “2-(Fmoc-aminomethyl)-oxazole-4-carboxylic acid [Compound 2]”, the “Ka(1), stoichiometric equilibrium binding constant near saturation” value [1] was 24000 M⁻¹.
For “2-(Fmoc-aminomethyl)-thiazole-4-carboxylic acid [Compound 1]”, the “Ka(1), stoichiometric equilibrium binding constant near saturation” value [1] was 25000 M⁻¹.
In the case of `O=C(NCc1nc(-c2nc(C(=O)O)cs2)co1)OCC1c2ccccc2-c2ccccc21` [Compound 3, 2-(2′-Fmoc-aminomethyl-oxazole-4′-yl)-thiazole-4-carboxylic acid], the solubility ([2]; in DCM, ethyl ether, EtOAc, THF, methanol, ethanol, acetonitrile, HFIP, DMF, NMP or water) is reported as “did not dissolve”, the solubility ([2]; in DCM, ethyl ether, EtOAc, THF, methanol, ethanol, acetonitrile, HFIP, DMF, NMP or water, listed as Compound (3)) is reported as “insoluble” and the solubility ([2]; in DMSO, or solutions containing at least 50% DMSO in DMF or NMP) is reported as “could only dissolve”. The solubility ([2]; in DMSO, or solutions containing at least 50% DMSO in DMF or NMP, listed as Compound (3)) was “soluble”.
In the case of `CC(=O)NCc1nc(-c2nc(C(=O)NCC(=O)NCc3nc(C(=O)NCCCN)cs3)cs2)co1` [Compound L2-3], the “effect on the growth of V. anguillarum cultures” value (shortened to “effect on the growth”) [3] is reported as “did not have a detectable effect”.
With `CC(=O)NCc1nc(-c2nc(C(=O)NCC(=O)NCc3nc(C(=O)NCCCN)co3)cs2)co1` [Compound L2-6] the “OD650 of V. anguillarum cultures” value [3, 4] was 0.137, the “OD650 of V. anguillarum cultures” value [3, 5] was 0.395 and the “OD650 of V. anguillarum cultures” value [3, 6] was 0.130. The “OD650 of V. anguillarum cultures” value [3, 7] was 0.391, the “OD650 of V. anguillarum cultures” value [3, 8] was 0.120 and the “OD650 of V. anguillarum cultures” value [3, 9] was 0.402. The “OD650 of V. anguillarum cultures” value [3, 10] was 0.113, the “OD650 of V. anguillarum cultures” value [3, 11] was 0.427 and the “OD650 of V. anguillarum cultures” value [3, 12] was 0.073. The “OD650 of V. anguillarum cultures” value [3, 13] was 0.388, the “killing of the bacteria” value [3] was “did not kill the bacteria” and the “effect on the growth” value [3] was “inhibited the growth”.
With `CC(=O)NCc1nc(-c2nc(C(=O)NCC(=O)NCc3nc(-c4nc(C(=O)NCCCN)cs4)co3)cs2)co1` [Compound L2-9] the “OD650 of V. anguillarum cultures” value [3, 4] was 0.135, the “OD650 of V. anguillarum cultures” value [3, 5] was 0.417 and the “OD650 of V. anguillarum cultures” value [3, 6] was 0.135. The “OD650 of V. anguillarum cultures” value [3, 7] was 0.421, the “OD650 of V. anguillarum cultures” value [3, 8] was 0.131 and the “OD650 of V. anguillarum cultures” value [3, 9] was 0.425. For the same molecule, the “OD650 of V. anguillarum cultures” value [3, 10] was 0.125, the “OD650 of V. anguillarum cultures” value [3, 11] was 0.409 and the “OD650 of V. anguillarum cultures” value [3, 12] was 0.075. For the same molecule, the “OD650 of V. anguillarum cultures” value [3, 13] was 0.354, the “killing of the bacteria” value [3] was “did not kill the bacteria” and the “effect on the growth” value [3] was “inhibited the growth”.
In the case of “Microcin B17 fragment 13-23 [Compound 39]”, the “OD650 of V. anguillarum cultures” value [3, 4] is reported as 0.111, the “OD650 of V. anguillarum cultures” value [3, 5] is reported as 0.419 and the “OD650 of V. anguillarum cultures” value [3, 6] is reported as 0.082. For the same molecule, the “OD650 of V. anguillarum cultures” value [3, 7] was 0.297, the “OD650 of V. anguillarum cultures” value [3, 8] was 0.051 and the “OD650 of V. anguillarum cultures” value [3, 9] was 0.279. The “OD650 of V. anguillarum cultures” value [3, 10] was 0.034, the “OD650 of V. anguillarum cultures” value [3, 11] was 0.241 and the “OD650 of V. anguillarum cultures” value [3, 12] was 0.034. The “OD650 of V. anguillarum cultures” value [3, 13] was 0.244, the “killing of the bacteria” value [3] was “did not kill the bacteria” and the “effect on the growth” value [3] was “inhibited the growth”.
In the case of tachyplesin [reference compound], the “OD650 of V. anguillarum cultures” value ([3]; 6.25 μg/ml peptide, 9 hr incubation) is reported as 0.068, the “OD650 of V. anguillarum cultures” value ([3]; 6.25 μg/ml peptide, 20 hr incubation) is reported as 0.036 and the “OD650 of V. anguillarum cultures” value ([3]; 12.5 μg/ml peptide, 9 hr incubation) is reported as 0.035. The “OD650 of V. anguillarum cultures” value ([3]; 12.5 μg/ml peptide, 20 hr incubation) was 0.035, the “OD650 of V. anguillarum cultures” value ([3]; 25 μg/ml peptide, 9 hr incubation) was 0.035 and the “OD650 of V. anguillarum cultures” value ([3]; 25 μg/ml peptide, 20 hr incubation) was 0.035. The “OD650 of V. anguillarum cultures” value ([3]; 50 μg/ml peptide, 9 hr incubation) was 0.039, the “OD650 of V. anguillarum cultures” value ([3]; 50 μg/ml peptide, 20 hr incubation) was 0.038 and the “OD650 of V. anguillarum cultures” value ([3]; Dilution 5 (31.2 μg/ml) peptide, 9 hr incubation) was 0.098. The “OD650 of V. anguillarum cultures” value ([3]; Dilution 5 (31.2 μg/ml) peptide, 20 hr incubation) was 0.034.
